According to the supplement of paper PMC10307832:

How the values were obtained:
Experiment in all cases: relative viability (nuclei count vs DMSO), 5 days (fraction); higher = more cells survive
[1] = compound: COc1cc(Nc2c(C#N)cnc3cc(OCCCN4CCN(C)CC4)c(OC)cc23)c(Cl)cc1Cl [Bosutinib] + CC1(C)CCC(c2ccc(Cl)cc2)=C(CN2CCN(c3ccc(C(=O)NS(=O)(=O)c4ccc(N[C@H](CCN5CCOCC5)CSc5ccccc5)c(S(=O)(=O)C(F)(F)F)c4)cc3)CC2)C1 [Navitoclax] (partner 0.5 µM)
Outline: (§1)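 Medians of duplicate plates are given as relative viability. That measure is the nuclei count in treated wells divided by the count in vehicle wells. Counts were taken on 4× images of lung cancer cell lines in 1536-well plates, 5 days after pin-tool dosing the day after seeding with one drug alone or a fixed anchor-drug dose plus five library-drug doses (not always all listed) in √10 steps.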

[2] = compound: COc1cc(Nc2c(C#N)cnc3cc(OCCCN4CCN(C)CC4)c(OC)cc23)c(Cl)cc1Cl [Bosutinib] + COc1cc2c(Oc3ccc(NC(=O)C4(C(=O)Nc5ccc(F)cc5)CC4)cc3F)ccnc2cc1OCCCN1CCOCC1 [Foretinib] (partner 0.25 µM)
Outline: as §1

[3] = compound: COc1cc(Nc2c(C#N)cnc3cc(OCCCN4CCN(C)CC4)c(OC)cc23)c(Cl)cc1Cl [Bosutinib] + O=C(c1cc(Cc2n[nH]c(=O)c3ccccc23)ccc1F)N1CCN(C(=O)C2CC2)CC1 [Olaparib] (partner 8 µM)
Outline: as §1

[4] = compound: COc1cc(Nc2c(C#N)cnc3cc(OCCCN4CCN(C)CC4)c(OC)cc23)c(Cl)cc1Cl [Bosutinib] + Nc1ncn([C@H]2C[C@H](O)[C@@H](CO)O2)c(=O)n1 [Decitabine] (partner 2 µM)
Outline: as §1

[5] = compound: COc1cc(Nc2c(C#N)cnc3cc(OCCCN4CCN(C)CC4)c(OC)cc23)c(Cl)cc1Cl [Bosutinib] + Cc1nc(Nc2ncc(C(=O)Nc3c(C)cccc3Cl)s2)cc(N2CCN(CCO)CC2)n1 [Dasatinib] (partner 0.075 µM)
Outline: as §1

Cell Line | relative viability ([1]; first compound 0.01 µM) | relative viability ([1]; first compound 0.03162 µM) | relative viability ([1]; first compound 0.1 µM) | relative viability ([1]; first compound 1 µM) | relative viability ([2]; first compound 0.01 µM) | relative viability ([2]; first compound 0.03162 µM) | relative viability ([2]; first compound 0.1 µM) | relative viability ([2]; first compound 1 µM) | relative viability ([3]; first compound 0.01 µM) | relative viability ([3]; first compound 0.03162 µM) | relative viability ([3]; first compound 0.1 µM) | relative viability ([3]; first compound 1 µM) | relative viability ([4]; first compound 0.01 µM) | relative viability ([4]; first compound 0.03162 µM) | relative viability ([4]; first compound 0.1 µM) | relative viability ([4]; first compound 1 µM) | relative viability ([5]; first compound 0.01 µM) | relative viability ([5]; first compound 0.03162 µM) | relative viability ([5]; first compound 0.1 µM) | relative viability ([5]; first compound 1 µM)
HCC-366 | 1.08 | 1.05 | 0.997 | 0.49 | 0.884 | 0.97 | 0.971 | 0.879 | 0.406 | 0.378 | 0.376 | 0.19 | 0.348 | 0.365 | 0.312 | 0.265 | 0.755 | 0.627 | 0.692 | 0.66
NCI-H1651 | 1 | 1.17 | 0.88 | 0.961 | 0.75 | 0.737 | 0.909 | 0.8 | 0.184 | 0.189 | 0.184 | 0.201 | 0.511 | 0.711 | 0.688 | 0.625 | 0.488 | 0.452 | 0.433 | 0.482
LC-2-ad | 0.476 | 0.54 | 0.52 | 0.468 | 0.982 | 0.979 | 0.948 | 0.61 | 0.719 | 0.672 | 0.678 | 0.732 | 0.797 | 0.849 | 0.875 | 0.784 | 0.678 | 0.701 | 0.659 | 0.906
HCC-827 | 1 | 0.986 | 1.04 | 0.933 | 0.965 | 1.04 | 1.02 | 0.203 | 0.609 | 0.817 | 0.626 | 0.217 | 0.306 | 0.37 | 0.404 | 0.186 | 0.287 | 0.279 | 0.307 | 0.178
SK-LU-1 | 0.714 | 0.929 | 0.779 | 0.739 | 0.841 | 0.85 | 0.813 | 0.449 | 0.474 | 0.686 | 0.5 | 0.383 | 0.646 | 0.644 | 0.637 | 0.548 | 0.221 | 0.174 | 0.186 | 0.255
COR-L 105 | 0.808 | 0.825 | 0.84 | 0.492 | 1.05 | 1.05 | 0.895 | 0.844 | 0.677 | 0.743 | 0.844 | 0.603 | 0.642 | 0.608 | 0.72 | 0.47 | 0.383 | 0.363 | 0.397 | 0.353
LOU-NH91 | 0.755 | 0.713 | 0.666 | 0.391 | 0.912 | 0.929 | 0.845 | 0.538 | 0.889 | 0.868 | 0.898 | 0.697 | 0.818 | 0.834 | 0.765 | 0.653 | 0.578 | 0.577 | 0.547 | 0.556
LU99A | 0.769 | 0.878 | 0.782 | 1.06 | 0.853 | 1.04 | 0.967 | 1.07 | 0.234 | 0.291 | 0.284 | 0.245 | 0.871 | 0.945 | 0.961 | 0.861 | 0.611 | 0.582 | 0.635 | 0.548
NCI-H1650 | 1.46 | 1.06 | 1.18 | 0.754 | 0.917 | 1.09 | 0.862 | 0.599 | 0.705 | 0.717 | 0.632 | 0.565 | 0.457 | 0.378 | 0.378 | 0.511 | 0.357 | 0.317 | 0.375 | 0.457
SW 1573 | 0.996 | 0.998 | 0.979 | 0.919 | 0.913 | 0.825 | 0.693 | 0.858 | 0.533 | 0.457 | 0.528 | 0.484 | 0.606 | 0.48 | 0.557 | 0.451 | 0.459 | 0.553 | 0.505 | 0.583
HOP-62 | 0.901 | 0.982 | 1.04 | 1.09 | 1.11 | 0.965 | 1.13 | 1.12 |  | 0.395 | 0.451 | 0.435 | 0.208 | 0.215 | 0.209 | 0.253 | 0.692 | 0.639 | 0.671 | 0.688
UMC-11 | 0.256 | 0.316 | 0.333 | 0.33 | 0.979 | 1.07 | 1.03 | 0.94 | 0.64 | 0.672 | 0.248 | 0.686 | 0.661 | 0.555 | 0.596 | 0.535 | 0.409 | 0.454 | 0.456 | 0.455
NCI-H1734 | 0.808 | 0.827 | 0.853 | 0.737 | 0.888 | 0.837 | 0.849 | 0.719 | 0.629 | 0.62 | 0.584 | 0.488 | 0.511 | 0.55 | 0.483 | 0.458 | 0.523 | 0.508 | 0.512 | 0.46
EKVX | 0.882 | 0.929 | 0.914 | 0.807 | 0.723 | 0.82 | 0.693 | 0.469 | 0.925 | 0.86 | 0.876 | 0.628 | 0.382 | 0.38 | 0.311 | 0.336 | 0.549 | 0.505 | 0.611 | 0.491
HARA | 1.16 | 1.1 | 1.12 | 1.19 | 0.869 | 0.872 | 0.878 | 0.646 | 0.896 | 0.825 | 0.761 | 0.515 | 0.581 | 0.547 | 0.618 | 0.489 | 0.303 | 0.296 | 0.304 | 0.385
